What follows are molecules tested against GST-tagged recombinant human TYRO3 kinase domain (Homo sapiens (Human), UniProt Q06418) (assay: TYRO3 Enzyme Assay (LanthaScreen Eu Kinase Binding, TR-FRET)). Conditions: averaged IC50.
Sequence of GST-tagged recombinant human TYRO3 kinase domain (Q06418 518-790): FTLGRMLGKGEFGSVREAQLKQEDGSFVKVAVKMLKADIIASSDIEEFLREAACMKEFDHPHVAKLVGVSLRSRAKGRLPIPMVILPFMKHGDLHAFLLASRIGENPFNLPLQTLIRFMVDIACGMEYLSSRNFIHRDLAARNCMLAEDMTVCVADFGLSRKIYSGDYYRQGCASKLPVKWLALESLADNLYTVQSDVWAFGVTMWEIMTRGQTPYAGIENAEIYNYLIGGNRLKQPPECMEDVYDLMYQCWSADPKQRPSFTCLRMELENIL
Experimental: Compounds of Formula I were screened for their ability to inhibit TYRO3 kinase using Invitrogen's LanthaScreen™ Eu Kinase Binding technology. […] After a 60-minute incubation at 22° C., the reaction was measured using a PerkinElmer EnVision multimode plate reader via TR-FRET dual wavelength detection, and the percent of control (POC) calculated using a ratiometric emission factor. […] The POC values were fit to a 4 parameter logistic curve and the IC50 value is point where the curve crosses 50 POC.
Work on CNC(=O)c1ncccc1O[C@H]1CC[C@@H](n2nc(-c3cnn(C)c3)c3cnc(NC)cc32)CC1 [Example 276, N-methyl-3-(((1s,4s)-4-(3-(1-methyl-1H-pyrazol-4-yl)-6-(methylamino)-1H-pyrazolo[4,3-c]pyridin-1-yl)cyclohexyl)oxy)picolinamide] yielded an IC50 of 1000 to 10000 nM. Work on CNc1cc2c(cn1)c(-c1cnn(C)c1)nn2[C@H]1CC[C@@H](Oc2cccnc2C(=O)N(C)C)CC1 [Example 277, N,N-dimethyl-3-(((1s,4s)-4-(3-(1-methyl-1H-pyrazol-4-yl)-6-(methylamino)-1H-pyrazolo[4,3-c]pyridin-1-yl)cyclohexyl)oxy)picolinamide] yielded an IC50 of 1000 to 10000 nM. Work on CNc1cc2c(cn1)c(-c1cnn(C)c1)nn2[C@H]1CC[C@@H](Oc2ccc(=O)n(Cc3ccc(OC)cc3)n2)CC1 [Example 20, 2-(4-methoxybenzyl)-6-(((1s,4s)-4-(3-(1-methyl-1H-pyrazol-4-yl)-6-(methylamino)-1H-pyrazolo[4,3-c]pyridin-1-yl)cyclohexyl)oxy)pyridazin-3(2H)-one] yielded an IC50 of 1000 to 10000 nM. For CNc1cc2c(cn1)c(-c1cnn(C)c1)nn2[C@H]1CC[C@@H](Oc2ccc(=O)[nH]n2)CC1 [Example 21, 6-(((1s,4s)-4-(3-(1-methyl-1H-pyrazol-4-yl)-6-(methylamino)-1H-pyrazolo[4,3-c]pyridin-1-yl)cyclohexyl)oxy)pyridazin-3(2H)-one], the IC50 was 1000 to 10000 nM. In the case of CNc1cc2c(cn1)c(-c1cnn(C)c1)nn2[C@H]1CC[C@@H](Oc2ccc(OC)nn2)CC1 [Example 123, 1-((1s,4s)-4-((6-methoxypyridazin-3-yl)oxy)cyclohexyl)-N-methyl-3-(1-methyl-1H-pyrazol-4-yl)-1H-pyrazolo[4,3-c]pyridin-6-amine], the IC50 is reported as 1000 to 10000 nM. With CNc1cc2c(cn1)c(-c1cnn(C)c1)nn2[C@H]1CC[C@@H](Oc2ccc(C(=O)NCCOC)cc2)CC1 [Example 459, N-(2-methoxyethyl)-4-(((1s,4s)-4-(3-(1-methyl-1H-pyrazol-4-yl)-6-(methylamino)-1H-pyrazolo[4,3-c]pyridin-1-yl)cyclohexyl)oxy)benzamide] the IC50 was 1000 to 10000 nM. Molecule CCNc1cc2c(cn1)c(-c1cnn(C)c1)nn2[C@H]1CC[C@@H](Oc2ccc(=O)n(CCOC)n2)CC1 [Example 13, 6-(((1s,4s)-4-(6-(ethylamino)-3-(1-methyl-1H-pyrazol-4-yl)-1H-pyrazolo[4,3-c]pyridin-1-yl)cyclohexyl)oxy)-2-(2-methoxyethyl)pyridazin-3(2H)-one] has an IC50 of 1000 to 10000 nM. CCNc1cc2c(cn1)c(C1CCCC1)nn2[C@H]1CC[C@@H](Oc2nccc(C(F)(F)F)c2F)CC1 [Example 321, 3-cyclopentyl-N-ethyl-1-((1s,4s)-4-((3-fluoro-4-(trifluoromethyl)pyridin-2-l)oxy)cyclohexyl)-1H-pyrazolo[4,3-c]pyridin-6-amine] was tested, and the IC50 was 1000 to 10000 nM. CNc1cc2c(cn1)c(-c1cncc(C(F)(F)F)c1)nn2[C@H]1CC[C@@H](Oc2ccc(=O)n(C)n2)CC1 [Example 52, 2-methyl-6-(((1s,4s)-4-(6-(methylamino)-3-(5-(trifluoromethyl)pyridin-3-yl)-1H-pyrazolo[4,3-c]pyridin-1-yl)cyclohexyl)oxy)pyridazin-3(2H)-one] showed an IC50 of 1000 to 10000 nM. CNc1cc2c(cn1)c(-c1cnn(C)c1)nn2[C@H]1CC[C@@H](Oc2cccc(C(=O)NC(C)C)c2F)CC1 [Example 466, 2-fluoro-N-isopropyl-3-(((1s,4s)-4-(3-(1-methyl-1H-pyrazol-4-yl)-6-(methylamino)-1H-pyrazolo[4,3-c]pyridin-1-yl)cyclohexyl)oxy)benzamide] gave an IC50 of 1000 to 10000 nM. CNc1cc2c(cn1)c(-c1cnn(C)c1)nn2[C@H]1CC[C@@H](Oc2cccc(C(=O)NC(C)C)c2)CC1 [Example 455, N-isopropyl-3-(((1s,4s)-4-(3-(1-methyl-1H-pyrazol-4-yl)-6-(methylamino)-1H-pyrazolo[4,3-c]pyridin-1-yl)cyclohexyl)oxy)benzamide] showed an IC50 of 1000 to 10000 nM. With CNc1cc2c(cn1)c(-c1cnn(C)c1)nn2[C@H]1CC[C@@H](Oc2cccc(C(=O)N(C)C)c2)CC1 [Example 454] the IC50 was 1000 to 10000 nM. In the case of CNc1cc2c(cn1)c(-c1cnn(C)c1)nn2[C@H]1CC[C@@H](Oc2cccc(OCC(F)(F)F)n2)CC1 [Example 302, N-methyl-3-(1-methyl-1H-pyrazol-4-yl)-1-((1s,4s)-4-((6-(2,2,2-trifluoroethoxy)pyridin-2-yl)oxy)cyclohexyl)-1H-pyrazolo[4,3-c]pyridin-6-amine], the IC50 is reported as 1000 to 10000 nM. Work on CNc1cc2c(cn1)c(-c1cnc(N3CCOCC3)nc1)nn2[C@H]1CC[C@@H](Oc2ccc(=O)n(C)n2)CC1 [Example 51, 2-methyl-6-(((1s,4s)-4-(6-(methylamino)-3-(2-morpholinopyrimidin-5-yl)-1H-pyrazolo[4,3-c]pyridin-1-yl)cyclohexyl)oxy)pyridazin-3(2H)-one] yielded an IC50 of 1000 to 10000 nM. Work on CNc1cc2c(cn1)c(-c1cnn(C)c1)nn2[C@H]1CC[C@@H](Oc2ccc(C(=O)N(C)C)cc2)CC1 [Example 457, N,N-dimethyl-4-(((1s,4s)-4-(3-(1-methyl-1H-pyrazol-4-yl)-6-(methylamino)-1H-pyrazolo[4,3-c]pyridin-1-yl)cyclohexyl)oxy)benzamide] yielded an IC50 of 1000 to 10000 nM. CNc1cc2c(cn1)c(-c1cnn(C)c1)nn2[C@H]1CC[C@@H](Oc2nc(C)ncc2OC)CC1 [Example 176, 1-((1s,4s)-4-((5-methoxy-2-methylpyrimidin-4-yl)oxy)cyclohexyl)-N-methyl-3-(1-methyl-1H-pyrazol-4-yl)-1H-pyrazolo[4,3-c]pyridin-6-amine] showed an IC50 of 1000 to 10000 nM. Work on CCNc1cc2c(cn1)c(-c1cnn(C)c1)nn2[C@H]1CC[C@H](Oc2cccc(F)c2)CC1 [Example 475, N-ethyl-1-((1r,4r)-4-(3-fluorophenoxy)cyclohexyl)-3-(1-methyl-1H-pyrazol-4-yl)-1H-pyrazolo[4,3-c]pyridin-6-amine] yielded an IC50 of 1000 to 10000 nM. CNc1cc2c(cn1)c(-c1cnn(C)c1)nn2[C@H]1CC[C@@H](Oc2nccc(C)n2)CC1 [Example 126, N-methyl-3-(1-methyl-1H-pyrazol-4-yl)-1-((1s,4s)-4-((4-methylpyrimidin-2-yl)oxy)cyclohexyl)-1H-pyrazolo[4,3-c]pyridin-6-amine] showed an IC50 of 1000 to 10000 nM. CNc1cc2c(cn1)c(-c1cnn(C)c1)nn2C1CCC(Oc2cc(N(C)C)cnn2)CC1 (centres unmarked) [Example 154, 1-((1s,4s)-4-((5-(dimethylamino)pyridazin-3-yl)oxy)cyclohexyl)-N-methyl-3-(1-methyl-1H-pyrazol-4-yl)-1H-pyrazolo[4,3-c]pyridin-6-amine] gave an IC50 of 1000 to 10000 nM. CNc1cc2c(cn1)c(-c1cnn(C)c1)nn2[C@H]1CC[C@@H](Oc2ccn(C)c(=O)c2)CC1 [Example 24, 1-methyl-4-(((1s,4s)-4-(3-(1-methyl-1H-pyrazol-4-yl)-6-(methylamino)-1H-pyrazolo[4,3-c]pyridin-1-yl)cyclohexyl)oxy)pyridin-2(1H)-one] was tested, and the IC50 was < 10 nM. CNc1cc2c(cn1)c(-c1cnn(C)c1)nn2[C@H]1CC[C@@H](Oc2ccc(OCc3ccccc3)nc2)CC1 [Example 131, 1-((1s,4s)-4-((6-(benzyloxy)pyridin-3-yl)oxy)cyclohexyl)-N-methyl-3-(1-methyl-1H-pyrazol-4-yl)-1H-pyrazolo[4,3-c]pyrdin-6-amine] gave an IC50 of 1000 to 10000 nM. With Cn1cc(-c2nn([C@H]3CC[C@@H](Oc4cccnc4C(F)(F)F)CC3)c3cc(Nc4ccccc4)ncc23)cn1 [Example 304, 3-(1-methyl-1H-pyrazol-4-yl)-N-phenyl-1-((1s,4s)-4-((2-(trifluoromethyl)pyridin-3-yl)oxy)cyclohexyl)-1H-pyrazolo[4,3-c]pyridin-6-] the IC50 was < 10 nM. With CCNc1cc2c(cn1)c(-c1cnn(C(C)(C)C#N)c1)nn2[C@H]1CC[C@@H](Oc2ccc(=O)n(CC)n2)CC1 [Example 57, 2-(4-(1-((1s,4s)-4-((1-ethyl-6-oxo-1,6-dihydropyridazin-3-yl)oxy)cyclohexyl)-6-(ethylamino)-1H-pyrazolo[4,3-c]pyridin-3-yl)-1H-pyrazol-1-yl)-2-methylpropanenitrile] the IC50 was 1000 to 10000 nM. For CNc1cc2c(cn1)c(-c1cnn(C)c1)nn2[C@H]1CC[C@@H](Oc2cncnc2)CC1 [Example 141, N-methyl-3-(1-methyl-1H-pyrazol-4-yl)-1-((1s,4s)-4-(pyrimidin-5-yloxy)cyclohexyl)-1H-pyrazolo[4,3-c]pyridin-6-amine], the IC50 was 1000 to 10000 nM. With Cn1cc(-c2nn([C@H]3CC[C@@H](Oc4cn(C)nc4C(F)(F)F)CC3)c3cc(Nc4ccccc4)ncc23)cn1 [Example 303, 3-(1-methyl-1H-pyrazol-4-yl)-1-((1s,4s)-4-((1-methyl-3-(trifluoromethyl)-1H-pyrazol-4-yl)oxy)cyclohexyl)-N-phenyl-1H-pyrazolo[4,3-c]pyridin-6-amine] the IC50 was < 10 nM. Molecule CNc1cc2c(cn1)c(-c1cnn(C)c1)nn2[C@H]1CC[C@@H](Oc2cc(=O)cnn2C)CC1 [Example 114, 1-methyl-6-(((1s,4s)-4-(3-(1-methyl-1H-pyrazol-4-yl)-6-(methylamino)-1H-pyrazolo[4,3-c]pyridin-1-yl)cyclohexyl)oxy)pyridazin-4(1H)-one] has an IC50 of 1000 to 10000 nM. CNc1cc2c(cn1)c(-c1cnn(C)c1)nn2[C@H]1CC[C@H](Oc2cccnn2)CC1 [Example 119, N-methyl-3-(1-methyl-1H-pyrazol-4-yl)-1-((1r,4r)-4-(pyridazin-3-yloxy)cyclohexyl)-1H-pyrazolo[4,3-c]pyridin-6-amine] was tested, and the IC50 was 1000 to 10000 nM. CNc1cc2c(cn1)c(-c1ccn(C)n1)cn2[C@H]1CC[C@@H](Oc2ccc(=O)n(C)n2)CC1 [Example 74, 2-methyl-6-(((1s,4s)-4-(3-(1-methyl-1H-pyrazol-3-yl)-6-(methylamino)-1H-pyrrolo[3,2-c]pyridin-1-yl)cyclohexyl)oxy)pyridazin-3(2H)-one] showed an IC50 of 1000 to 10000 nM. With CNc1cc2c(cn1)c(-c1cnn(C)c1)nn2[C@H]1CC[C@@H](Oc2ccc(=O)n(CCOC)n2)CC1 [Example 17, 2-(2-methoxyethyl)-6-(((1s,4s)-4-(3-(1-methyl-1H-pyrazol-4-yl)-6-(methylamino)-1H-pyrazolo[4,3-c]pyridin-1-yl)cyclohexyl)oxy)pyridazin-3(2H)-one] the IC50 was 1000 to 10000 nM.

— patent publication US11247990B1, “Bicyclic fused pyridine compounds as inhibitors of TAM kinases” (ARRAY BIOPHARMA INC., priority 2017, dated 2022)
